For one assay, the target named is T1, IRAK4 (Homo sapiens, UniProt Q9NWZ3).
T1 construct: His-TEV-IRAK4 (1-460); His (N); TEV cleavage site (N)
T1 sequence (Q9NWZ3 1-460): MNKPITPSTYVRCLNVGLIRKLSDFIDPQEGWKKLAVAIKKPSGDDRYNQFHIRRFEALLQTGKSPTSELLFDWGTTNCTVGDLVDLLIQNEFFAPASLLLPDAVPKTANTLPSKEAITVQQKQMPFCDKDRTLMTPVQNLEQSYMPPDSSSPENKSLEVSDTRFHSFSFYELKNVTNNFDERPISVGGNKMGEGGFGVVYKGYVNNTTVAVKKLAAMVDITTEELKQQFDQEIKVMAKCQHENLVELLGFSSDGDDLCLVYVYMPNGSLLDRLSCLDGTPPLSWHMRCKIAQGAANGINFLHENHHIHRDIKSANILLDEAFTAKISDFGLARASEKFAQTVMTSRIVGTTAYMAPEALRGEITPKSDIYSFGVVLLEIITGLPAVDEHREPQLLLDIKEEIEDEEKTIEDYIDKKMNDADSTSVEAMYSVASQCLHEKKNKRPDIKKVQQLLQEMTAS
Nature of the assay: IRAK4 enzymatic assay (ADP-Glo luminescence). Format: biochemical. To be noted: human recombinant His-TEV-IRAK4 (1-460), STK1-biotin peptide substrate. The procedure:
IRAK4 is a human purified recombinant enzyme (His-TEV-IRAK4 (1-460)).
In this assay, IRAK4 hydrolyses ATP, autophosphorylates and phosphorylates a Serine/Threonine generic peptidic substrate (STK: 61ST1BLC from CisBio International). Measurement of IRAK-4 inhibition is performed in 384-well format based on a luminescence assay (ADP-Glo™ Kinase Assay from Promega). Purified human recombinant IRAK4 ([…]) and serial diluted compounds in DMSO (range of concentration from 10 μM to 0.5 nM) or controls (1% DMSO) are incubated for 15 minutes at RT in assay buffer containing 50 mM Hepes pH 7.0, Fatty acid-free BSA 0.1%, Dithiothreitol (DTT) 2 mM, MgCl2 10 mM, EGTA 0.5 mM, Triton X-100 0.01%, MnCl2 5 mM. The kinase reaction is then initiated by the addition of ATP ([…]) and the peptidic substrate STK1-biotin peptide (300 nM). After 2 hours of incubation at RT, the reaction is stopped and the unconsumed ATP depleted by the addition of ADP-Glo™ Reagent according to supplier instructions. After 40 minutes of incubation at RT, the Kinase Detection Reagent is then added to the assay plate according to supplier instructions. After 20 minutes of incubation at RT, the luminescence signal is measured with a plate-reading luminometer (PerkinElmer Envision or equivalent reader).

For another assay, the target named is T2, IRAK1 (Homo sapiens, UniProt P51617).
T2 construct: His-TEV-IRAK1 (194-712); His (N); TEV cleavage site (N)
Nature of the assay: IRAK1 enzymatic assay (ADP-Glo luminescence). In kind it is biochemical. The settings on record: human recombinant His-TEV-IRAK1 (194-712), ATP 1 μM; read-out: IRAK 1 IC50. The procedure: IRAK1 is a human purified recombinant enzyme (His-TEV-IRAK1 (194-712))
In this assay, IRAK1 hydrolyses ATP and autophosphorylates. Measurement of IRAK-1 inhibition is performed in 384-well format based on luminescence assay (ADP-Glo™ Kinase Assay from Promega). Purified human recombinant IRAK1 ([…]) and serial diluted compounds in DMSO (range of concentration from 10 μM to 0.5 nM) or controls (1% DMSO) are incubated for 15 minutes at RT in assay buffer containing 50 mM Hepes pH 7.0, Fatty acid-free BSA 0.1%, Dithiothreitol (DTT) 2 mM, MgCl2 10 mM, EGTA 0.5 mM, Triton X-100 0.01%. The kinase reaction is then initiated by the addition of ATP at a concentration of 1 μM. After 2 hours of incubation at RT, the reaction is stopped and the unconsumed ATP depleted by the addition of ADP-Glo™ Reagent according to supplier instructions. After 40 minutes of incubation at RT, the Kinase Detection Reagent is then added to the assay plate according to supplier instructions. After 20 minutes of incubation at RT, the luminescence signal is measured with a luminometer (PerkinElmer Envision or equivalent reader).
On the technique in general: ADP-Glo turns the ADP formed in a reaction into a luminescent signal.

Assay [1] concerns TLR7 induced IL-6 secretion in human mononuclear cells (PBMC's). Description: TLR7 induced IL-6 in human PBMC's. The settings on record: TLR7 specific ligand 2 uM overnight, IL-6 AlphaLISA. Format: cell-based. The method, then:
TLR7 Induced IL-6 in Human PBMC's
Human PBMC assay was used as one of the functional assaya to monitor the activity of IRAK1 and IRAK4 small molecule inhibitors on TLR7 induced IL-6 secretion in human mononuclear cells (PBMC's). Human PBMCs were prepared from buffy coats (whole blood enriched with leukocytes and platelets) obtained from healthy volunteers used either fresh or frozen are plated in assay media (RPMI+2% P/S/L-glu+10% HI-FBS) and pre-treated with compounds in DMSO/media (range of concentrations from 25 uM to 0.4 nM) or controls (0.25% DMSO) for 30 minutes at 37° C. in assay media. Following pre-treatment with IRAK1 and IRAK4 inhibitors, PBMC's were stimulated with TLR7 specific ligand (2 uM) overnight (16-18 hrs) at 37° C. After incubation supernatant was transferred to 384 well PE AlphaPlate-384 (6005350) and IL-6 is quantified using Perkin Elmer IL-6 Alpha LISA kit (AL223C). Plates were read on an Envision® plate reader with Alpha Technology®.
A general note: In Alpha technology, singlet oxygen from a donor bead excites a nearby acceptor bead.

T2 sequence (P51617 194-712): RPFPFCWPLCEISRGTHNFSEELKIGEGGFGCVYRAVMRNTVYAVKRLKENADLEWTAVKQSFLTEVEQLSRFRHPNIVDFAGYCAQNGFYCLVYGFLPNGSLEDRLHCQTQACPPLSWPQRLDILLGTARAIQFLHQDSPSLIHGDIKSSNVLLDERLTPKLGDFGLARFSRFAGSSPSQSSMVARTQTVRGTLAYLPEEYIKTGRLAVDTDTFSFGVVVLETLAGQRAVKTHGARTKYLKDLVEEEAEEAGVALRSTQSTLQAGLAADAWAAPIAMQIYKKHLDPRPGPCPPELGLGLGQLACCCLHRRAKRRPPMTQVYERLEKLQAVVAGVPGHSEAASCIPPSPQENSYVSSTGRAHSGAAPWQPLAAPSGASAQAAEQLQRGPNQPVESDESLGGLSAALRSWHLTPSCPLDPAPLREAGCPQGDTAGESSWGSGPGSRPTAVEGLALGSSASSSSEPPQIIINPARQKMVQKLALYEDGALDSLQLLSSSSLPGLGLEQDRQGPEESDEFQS

Regarding `CN1CCC(c2ccc3c(c2)[nH]/c(=N\C(=O)c2cccc(C(F)(F)F)c2)n3CC(O)CO)C1=O` (single isomer, unassigned) [Compound 20a], the results for the IC50 (on IRAK4; on IRAK1; in assay [1]) were at most 100 nM, 100 to 1000 nM and 100 to 1000 nM, respectively.
With `CN1CCC(c2ccc3c(c2)nc(NC(=O)c2cccc(C(F)(F)F)c2)n3CCCO)C1=O` (single isomer, unassigned) [Compound 23a], the concentration for half-maximal inhibition (IC50) (as a rule, the concentration that gives 50% inhibition) at IRAK4 is at most 100 nM; at IRAK1, 100 to 1000 nM; in assay [1] (Homo sapiens, PBMC), at most 100 nM.
As to `O=C(/N=c1\[nH]c2cc(C3CCCN(CC4CC4)C3=O)ccc2n1CCCO)c1cccc(C(F)(F)F)c1` (stereo not drawn) [Compound 7, (E)-N-(5-(1-(cyclopropylmethyl)-2-oxopiperidin-3-yl)-1-(3-hydroxypropyl)-1H-benzo[d]imidazol-2(3H)-ylidene)-3-(trifluoromethyl)benzamide], the IC50 on IRAK4 was at most 100 nM; at IRAK1 it was 100 to 1000 nM; in assay [1] (Homo sapiens, PBMC), 100 to 1000 nM.
For the compound `C=CCCn1/c(=N/C(=O)c2cccc(C(F)(F)F)c2)[nH]c2cc(C3CCCN(C)C3=O)ccc21` (stereo not drawn) [Compound 18, N-[1-But-3-enyl-5-(1-methyl-2-oxo-piperidin-3-yl)-1,3-dihydro-benzoimidazol-(2E)-ylidene]-3-trifluoromethyl-benzamide], the 50% inhibitory concentration (IC50) is at most 100 nM at IRAK4; 100 to 1000 nM on IRAK1; 100 to 1000 nM in assay [1] (Homo sapiens, PBMC).
Take `CN1CCC(c2ccc3c(c2)[nH]/c(=N\C(=O)c2cccc(C(F)(F)F)c2)n3CCC(O)CO)C1=O` (single isomer, unassigned) [Compound 21c]: the IC50 at IRAK4 is at most 100 nM; at IRAK1 it was 100 to 1000 nM; in assay [1] it was at most 100 nM.
With `Cc1ccn(C)c(=O)c1-c1ccc2c(c1)[nH]/c(=N\C(=O)c1cccc(C(F)(F)F)c1)n2CCCO` [Compound 6, (E)-N-(5-(1,4-dimethyl-2-oxo-1,2-dihydropyridin-3-yl)-1-(3-hydroxypropyl)-1H-benzo[d]imidazol-2(3H)-ylidene)-3-(trifluoromethyl)benzamide], the figures for the 50% inhibitory concentration (IC50) at IRAK4 and at IRAK1 were at most 100 nM and 100 to 1000 nM, respectively.
In the same order, the values of `CN1CCCC(c2ccc3c(c2)[nH]/c(=N\C(=O)c2cccc(C(F)F)c2)n3C[C@](C)(F)CO)C1=O` (stereo partly drawn) [Compound 2a, (E)-3-(difluoromethyl)-N-(1-((S)-2-fluoro-3-hydroxy-2-methylpropyl)-5-(1-methyl-2-oxopiperidin-3-yl)-1H-benzo[d]imidazol-2(3H)-ylidene)benzamide] are at most 100 nM and 100 to 1000 nM.
Consider `Cn1cccc(-c2ccc3c(c2)[nH]/c(=N\C(=O)c2cccc(C(F)(F)F)c2)n3CCCO)c1=O` [Compound 4, (E)-N-(1-(3-hydroxypropyl)-5-(1-methyl-2-oxo-1,2-dihydropyridin-3-yl)-1H-benzo[d]imidazol-2(3H)-ylidene)-3-(trifluoromethyl)benzamide], for which the figures for the IC50 on IRAK4 and at IRAK1 were at most 100 nM and 100 to 1000 nM, respectively.
In the same order, the values of `O=C1C=C(c2ccc3c(c2)[nH]/c(=N\C(=O)c2cccc(C(F)(F)F)c2)n3CCCO)CO1` [Compound 9, (E)-N-(1-(3-hydroxypropyl)-5-(5-oxo-2,5-dihydrofuran-3-yl)-1H-benzo[d]imidazol-2(3H)-ylidene)-3-(trifluoromethyl)benzamide] are at most 100 nM and 100 to 1000 nM.
In the same order, the values of `O=C(/N=c1\[nH]c2cc(C3(O)COC3)ccc2n1CCCO)c1cccc(C(F)(F)F)c1` [Compound 11, (E)-N-(5-(3-hydroxyoxetan-3-yl)-1-(3-hydroxypropyl)-1H-benzo[d]imidazol-2(3H)-ylidene)-3-(trifluoromethyl)benzamide] are at most 100 nM and 1000 to 10000 nM.
In the same order, the values of `O=C(/N=c1\[nH]c2cc(C3CCCCC3=O)ccc2n1CCCO)c1cccc(C(F)(F)F)c1` (stereo not drawn) [Compound 8, (E)-N-(1-(3-hydroxypropyl)-5-(2-oxocyclohexyl)-1H-benzo[d]imidazol-2(3H)-ylidene)-3-(trifluoromethyl)benzamide] are at most 100 nM and at most 100 nM.
